Values quoted from earlier work, collected in patent EP3074407B1, “COMPOUND AND METHOD FOR SELECTIVE RADIOLABELLING OF POLYPEPTIDES BY MEANS OF SOLID-PHASE SYNTHESIS” (Freie Universität Berlin, priority 2013, dated 2015).

Legend:
[1] = PET, Menschen, Primaten und Nagetieren; cited from earlier work
[2] = literature (Breeman et al. 1996); cited from earlier work

Molecule	Aufnahme im Gehirn [1]	Durchlässigkeit der Blut-Hirn-Schranke [2]
FC(F)(F)c1nnnn1-c1ccc(OC[18F])c(CN[C@H]2CCCN[C@H]2c2ccccc2)c1 [18F-SPA-RQ]	hohe Aufnahme	
[indium111-DTPA-Argl]substance P [In^111 markierten Substanz P-Agonisten]		undurchlässig
